Source: patent US20090286713A9, “Collagen Receptor I-Domain Binding Modulators” (Biotie Therapies Corporation, priority 2005, published 2009)

Key:
α2 I-domain [1] = target: T1, α2 I-domain (Homo sapiens, UniProt P17301); assay: Solid-phase binding assay, α2 I-domain binding to type I collagen; conditions: for inhibition of α2 I-domain binding to type I collagen (in words): FIG. 6B, 7A, 8A
T1 construct: corresponded to amino acids 124-339 of the whole α2 integrin; made in house; host or cells: E. coli BL21 (pGEX-2T)
T1 sequence (P17301 153-368): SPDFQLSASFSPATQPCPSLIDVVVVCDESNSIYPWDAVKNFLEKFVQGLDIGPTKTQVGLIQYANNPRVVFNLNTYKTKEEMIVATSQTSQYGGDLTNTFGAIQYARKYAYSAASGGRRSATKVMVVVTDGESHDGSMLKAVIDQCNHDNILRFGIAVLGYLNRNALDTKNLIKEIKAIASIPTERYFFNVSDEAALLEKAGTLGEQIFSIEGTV
Procedure: (§1) Solid-phase binding assay for α1-domains—The coating of a 96-well high binding microtiter plate (Nune) was done by exposure to 0.1 ml of PBS containing 5 μg/cm2 (15 μg/ml) collagens or 20 μg/ml triple-helical peptides overnight at +4° C. Blank wells were coated with 1:1 solution of 0.1 ml Delfia® Diluent II (Wallac) and PBS. Residual protein absorption sites on all wells were blocked with 1:1 solution of 0.1 ml Delfia® Diluent II (Wallac) and PBS. Recombinant proteins (αI-GST) were added to the coated wells at a desired concentration in Delfia® Assay Buffer and incubated for 1 h at room temperature. Europium-labelled anti-GST antibody (Wallac) was then added (typically 1:1000), and the mixture was incubated for 1 h at room temperature. All incubations mentioned above were done in the presence of 2 mM MgCl2. Delfia® enhancement solution (Wallac) was added to each well and the Europium signal was measured by time-resolved fluorometry (Victor2 multilabel counter, Wallac). At least three parallel wells were analyzed. In some cases some what modified solid-phase assay was used and it was performed according Tulla et al, 2001. It uses anti-GST and Europium-labelled protein G instead of Europium-labelled anti-GST antibody.
(§2) The tetracyclic Streptomyces compounds synthesised in Example 1, where screened for inhibition of collagen binding to α1 and α2 I-domains, using the α I-domain assay described in Example 4. […] L3015 could inhibit the binding of both α1I and α2 I-domains to type I and type IV collagen (FIG. 6B).
Based on the utilization of 3D model other compounds from the polyketide family were tested. The compounds were tested in the europium-labelled anti-GST assay described in Example 4. Tetracyclic polyketides L3007, L3008, and L3009 could inhibit α2 I-domain binding to type I collagen (FIG. 8A).

α1 I-domain [2] = target: T2, α1 I-domain (Homo sapiens, UniProt P56199); assay: Solid-phase binding assay, α1 I-domain binding to type I collagen; conditions: FIG. 6B, 7A
T2 construct: corresponding to amino acids 123-338 of the whole α1 integrin; made in house; host or cells: E. coli BL21 (pGEX-4T-3)
T2 sequence (P56199 151-366): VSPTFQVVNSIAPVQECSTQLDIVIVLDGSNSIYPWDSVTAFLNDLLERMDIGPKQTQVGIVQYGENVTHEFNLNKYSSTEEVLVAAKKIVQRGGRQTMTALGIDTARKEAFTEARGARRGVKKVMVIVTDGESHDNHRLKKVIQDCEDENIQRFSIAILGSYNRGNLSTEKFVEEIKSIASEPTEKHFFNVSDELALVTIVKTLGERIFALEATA
Procedure: as §1, §2
Furthermore α1I and α2 I-domain binding to collagen I in the presence of lovastatin was tested in the europium-labelled anti-GST assay described in Example 4. Lovastatin is an allosteric inhibitor of leukocyte integrin α I-domains (e.g. αL I-domain), and the binding site of lovastatin represents an optional binding site for possible modulators. […] These biological tests gave further evidence that collagen receptor α I-domains are inhibited by direct blocking of the MIDAS surface by tetracyclic polyketide.

[3] = target: T3, CHO cells expressing α2β1 integrin (Homo sapiens, UniProt P05556+P17301); assay: Cell adhesion assay, CHO-α2 cells on collagen type I; assay type: cell-based, Chinese Hamster; conditions: for Emax at 100 µM / inhibition at 50 µM: CHO; for EC50: CHO-α2 cells, collagen type I, read-out: EC50, adhesion
T3 sequence (P17301 1-1181): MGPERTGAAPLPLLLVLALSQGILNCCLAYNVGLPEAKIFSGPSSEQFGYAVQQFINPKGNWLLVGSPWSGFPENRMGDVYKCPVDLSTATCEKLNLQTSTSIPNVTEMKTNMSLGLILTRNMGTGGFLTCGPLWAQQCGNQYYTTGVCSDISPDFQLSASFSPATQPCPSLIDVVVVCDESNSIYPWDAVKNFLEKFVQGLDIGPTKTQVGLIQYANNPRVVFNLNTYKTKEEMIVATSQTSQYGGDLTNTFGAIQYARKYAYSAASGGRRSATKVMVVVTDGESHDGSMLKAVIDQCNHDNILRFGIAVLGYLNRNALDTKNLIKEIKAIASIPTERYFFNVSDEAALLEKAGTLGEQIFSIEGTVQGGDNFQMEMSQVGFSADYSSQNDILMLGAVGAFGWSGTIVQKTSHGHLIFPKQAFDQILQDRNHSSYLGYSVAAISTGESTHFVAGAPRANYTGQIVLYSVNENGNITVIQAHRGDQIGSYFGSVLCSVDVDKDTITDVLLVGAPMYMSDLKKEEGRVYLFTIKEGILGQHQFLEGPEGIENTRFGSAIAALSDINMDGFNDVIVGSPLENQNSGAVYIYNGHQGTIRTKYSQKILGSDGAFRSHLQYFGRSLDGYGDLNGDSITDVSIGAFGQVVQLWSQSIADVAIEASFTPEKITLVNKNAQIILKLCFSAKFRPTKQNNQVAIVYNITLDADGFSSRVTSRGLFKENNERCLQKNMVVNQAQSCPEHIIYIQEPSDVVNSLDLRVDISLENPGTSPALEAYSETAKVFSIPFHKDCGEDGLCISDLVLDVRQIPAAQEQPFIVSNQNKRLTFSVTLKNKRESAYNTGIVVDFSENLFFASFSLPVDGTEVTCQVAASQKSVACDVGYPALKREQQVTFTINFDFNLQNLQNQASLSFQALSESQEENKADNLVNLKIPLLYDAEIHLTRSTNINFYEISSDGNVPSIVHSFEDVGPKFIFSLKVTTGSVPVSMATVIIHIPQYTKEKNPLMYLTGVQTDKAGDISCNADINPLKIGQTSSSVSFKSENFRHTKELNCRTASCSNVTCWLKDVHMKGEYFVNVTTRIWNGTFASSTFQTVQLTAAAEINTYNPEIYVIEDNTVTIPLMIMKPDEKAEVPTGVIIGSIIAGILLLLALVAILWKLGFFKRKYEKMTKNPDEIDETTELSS
Procedure: (§3) Chinese Hamster Ovary (CHO) cell clone expressing wild type α2 integrin was used in cell adhesion assay. Cells were suspended in serum free medium containing 0.1 mg/ml cycloheximide (Sigma) and the compounds were preincubated with the cells prior to transfer to the wells. Cells (150000/well) were allowed to attach on collagen type I coated wells (in the presence and absence of inhibitor compounds) for 2 h at +37° C. and after that non-adherent cells were removed. Fresh serum free medium was added and the living cells were detected using a cell viability kit (Roche) according to the manufacturers protocol.
(§4) For this purpose CHO cells were transfected to express α2β1 integrin on their surface as their only collagen receptor.

PC-3 cells = assay: Cell invasion assay, PC-3 cells through Matrigel; assay type: cell-based; conditions: Homo sapiens, 72 hours
Procedure: Experimental procedure. […] Inserts were stored at −20° C. […] The remaining media was aspirated. […] Inserts were allowed to dry. Fixed invaded cells were calculated under the microscope. Invasion % was calculated as a comparison to the control.

[4] = test system: platelet aggregation in whole blood; assay: Platelet function analyzer PFA-100 closure time of whole blood; assay type: cell-based; conditions: PFA-100, collagen plus epinephrine; FIG. 12
Procedure: Mean and standard deviations were calculated for each treatment.

[5] = test system: CHO expressing mutated α2β1 integrin (tyrosine 285, leucine 286, leucine 296); assay: Cell adhesion assay with CHO cells expressing mutated α2β1 integrin; assay type: cell-based, Chinese Hamster; conditions: data not shown
[6] = target: T4, CHO cells expressing α2β1 integrin (Homo sapiens, UniProt P17301); assay: Cell adhesion assay, CHO-α2 cells on collagen type I; assay type: cell-based, Chinese Hamster; conditions: FIG. 10A, 10B
T4 sequence (P17301 1-1181): T3 sequence (P17301 1-1181)
Procedure: as §3, §4

α1 I-domain [7] = target: T2, α1 I-domain; assay: Solid-phase binding assay, α1 I-domain binding to type IV collagen; conditions: FIG. 6B
Procedure: as §1, with “antibody. […]” for “antibody.”

α2 I-domain [8] = target: T1, α2 I-domain; assay: α2 I-domain binding to RKK-peptide (europium-labelled protein G assay); conditions: FIG. 7B
Procedure: as §1
RKK-peptides are known to bind to MIDAS of α2 I-domain (Ivaska et al., 1999). […]

α2 I-domain [9] = target: T1, α2 I-domain; assay: Solid-phase binding assay, α2 I-domain binding to type IV collagen; conditions: FIG. 6B
Procedure: as §1, with “antibody. […]” for “antibody.”

Row | Compound | Emax at 100 µM [3] [%] | EC50 [3] [µM] | further results
1 | methyl 2-ethyl-2,5,7,12-tetrahydroxy-4,6,11-trioxo-1,2,3-trihydronaphthacene-carboxylate [Compound L3007] | – | – | inhibition of α2 I-domain binding to type I collagen (in words) (α2 I-domain [1]): could inhibit
2 | CC[C@H](C)C(=O)O[C@H]1C[C@@H](C)C=C2C=C[C@H](C)[C@H](CC[C@@H]3C[C@@H](O)CC(=O)O3)[C@H]21 [lovastatin, reference compound] | – | – | inhibition of α2 I-domain binding to type I collagen (in words) (α2 I-domain [1]): no effect; inhibition of α1 I-domain binding to type I collagen (in words) (α1 I-domain [2]): no effect
3 | O=C(c1ccccc1)c1cccc(NS(=O)(=O)c2cccc(-c3ccc(F)cc3)c2)c1 [Compound 432] | 79 | 15 | –
4 | O=S(=O)(Nc1ccc(C(O)c2ccccc2)cc1)c1cccc(-c2ccc(F)cc2)c1 (centres unmarked) [Compound 452] | – | 9.4 | inhibition at 50 µM [3]: 83%; EC50 (PC-3 cells): 0.8 µM
5 | O=C(c1ccccc1)c1ccc(NS(=O)(=O)c2cccc(-c3ccc(F)cc3)c2)cc1 [Compound 384] | 81 | 12 | –
6 | O=C(c1ccccc1)c1ccc([N-]S(=O)(=O)c2cccc(-c3ccc(F)cc3)c2)cc1.[Na+] [Compound 434] | – | 9.1 | closure time of the blood [4]: increase the closure time; effect of mutation of tyrosine 285, leucine 286, leucine 296 on the inhibitory effect in adhesion of CHO cells expressing α2β1 to collagen I [5]: significantly decreased; Emax at 100 µM ([3]; at 100 uM): 78%; inhibition of cell adhesion to collagen type I (in words) [6]: potent inhibitor
7 | N#Cc1ccc(NS(=O)(=O)c2cccc(-c3ccc(F)cc3)c2)cc1 [Compound 448] | 74 | 38 | –
8 | O=S(=O)(Nc1cccc(-c2ccc(F)cc2)c1)c1ccc(Cl)cc1 [Compound 398] | – | 16 | inhibition at 50 µM [3]: 83%
9 | O=C(c1ccccc1)c1ccc(NS(=O)(=O)c2ccc(Cl)cc2Cl)cc1 [Compound 416] | 79 | 42 | inhibition at 50 µM [3]: 44%
10 | CCc1cc(O)c2c(O)c3c(c(O)c2c1C(=O)OC)C(=O)c1cccc(O)c1C3=O [Compound L3008, methyl 2-ethyl-4,5,7,12-tetrahydroxy-6,11-dioxonaphthacenecarboxylate] | – | – | inhibition of α2 I-domain binding to type I collagen (in words) (α2 I-domain [1]): could inhibit; effect of mutation of tyrosine 285, leucine 286, leucine 296 on the inhibitory effect in adhesion of CHO cells expressing α2β1 to collagen I [5]: significantly decreased
11 | O=S(=O)(Nc1cccc(-c2ccc(F)cc2)c1)c1ccc(Cl)cc1Cl [Compound 403] | 86 | 37 | –
12 | CN(C)CCN(c1ccc(N(C)C)cc1)S(=O)(=O)c1cccc(-c2ccc(F)cc2)c1 [Compound 354] | 89 | 29 | –
13 | CCc1cc(O)c2c(O)c3c(cc2c1C(=O)OC)C(=O)c1cccc(O)c1C3=O [Compound L3015, methyl 2-ethyl-4,5,7-trihydroxy-6,11 dioxonaphthacenecarboxylate] | – | – | inhibition of α1 I-domain binding to type IV collagen (in words) (α1 I-domain [7]): could inhibit; inhibition of α2 I-domain binding to type I collagen (in words) (α2 I-domain [1]): could inhibit; inhibition at 30 µM (α2 I-domain [1]; at 0.03 mM concentration, dose dependent, FIG. 6A): ~50%; displacement of RKK peptide at MIDAS (α2 I-domain [8]): can displace; inhibition of α1 I-domain binding to type I collagen (in words) (α1 I-domain [2]): could inhibit; inhibition of α2 I-domain binding to type IV collagen (in words) (α2 I-domain [9]): could inhibit
14 | CN(C)c1ccc(N(CCn2ccnc2)S(=O)(=O)c2cccc(-c3ccc(F)cc3)c2)cc1 [Compound 358] | 74 | 30 | –
15 | CN(c1ccc(NC(=O)N2CCNC2=O)cc1)S(=O)(=O)c1cccc(-c2ccc(F)cc2)c1 [Compound 430] | 59 | 14 | –
16 | Cn1cccc1C(=O)Nc1ccc(NS(=O)(=O)c2cccc(-c3ccc(F)cc3)c2)cc1 [Compound 442] | 22 | – | –
17 | O=[N+]([O-])c1ccc(NS(=O)(=O)c2cccc(-c3ccc(F)cc3)c2)cc1 [Compound 440] | 78 | 8.7 | –
18 | CC(=O)c1ccc(NS(=O)(=O)c2cccc(-c3ccc(F)cc3)c2)cc1 [Compound 383] | – | 39 | –
19 | CN(C)c1ccc(N(CCO)S(=O)(=O)c2cccc(-c3ccc(F)cc3)c2)cc1 [Compound 359] | 67 | 39 | –
